{"source": "patent US20130273649A1", "about": "“Culture medium for pluripotent stem cells” (UNIVERSITY OF SOUTHERN CALIFORNIA, priority 2012, published 2013)", "key": {"Axin1": {"system": "Axin1", "experiment": "Western blot of Axin1 in human ESCs", "assay_type": "cell-based", "details": "human ESCs treated 24 h", "method": "(A) TOPFlash™ assay in H9 human ESCs subjected to the indicated treatments for 24 h. Data represent mean±s.d. of three biological replicates. (B) Representative phase contrast and alkaline phosphatase (AP) staining images of H9 human ESCs cultured in the indicated conditions for 3 passages. (C) Phase contrast images of H9 human ESCs cultured in CHIR/XAV or CHIR/IWR-1 for 11 passages. (D) Colony forming efficiency assay of H9 human ESCs cultured in FGF2 or CHIR/IWR-1 conditions. Data represent mean±s.d. of three biological replicates. Right panel: a representative image showing AP staining of colonies formed from H9 human ESCs cultured in either FGF2 or CHIR/IWR-1 condition. (E) Human ESCs cultured in CHIR/IWR-1 for 11 passages were immunostained with the indicated antibodies. (F) Embryoid bodies (EBs) were generated from H9 human ESCs cultured in CHIR/IWR-1 for 11 passages. The outgrowths of EBs were immunostained with the indicated antibodies. (G) H&E staining of teratomas generated from H9 ESCs cultured in CHIR/IWR-1 for 20 passages. (H) Western blot analysis of Axin1 and Axin2 expression in HES3 human ESCs treated with the indicated cytokines/inhibitors for 24 h. (I) Immunofluorescence images of H9 human ESCs (passage 5 in CHIR) overexpressing Flag-tagged Axin2. […]"}, "CD1 EpiSCs": {"system": "CD1 EpiSCs", "experiment": "Clonogenicity: colony formation after single-cell deposition of EpiSCs", "assay_type": "cell-based, mouse", "details": "96-well plate, CHIR only", "method": "(A) Representative phase-contrast images of CD1 mouse EpiSCs cultured in the indicated conditions. […] (B) Phase-contrast image showing differentiating CD1 mouse EpiSCs at the 2nd passage in GMEM/10% FBS with 2 μM XAV. (C) CD1 mouse EpiSCs were cultured in CHIR/XAV for 7 passages and were subsequently immunostained with indicated antibodies against pluripotency markers. (D) Numbers of undifferentiated colonies formed by day 9 after single-cell deposition of CD1 EpiSCs into 0.1% gelatin-coated 96-well plates and cultured in the conventional mouse ESC medium supplemented with the indicated small molecules or cytokines Results are shown as mean±s.d. of six biological replicates. (E) De novo derivation of mouse EpiSCs. Epiblast tissue (outlined in dashed line) of the E5.75 CD1 mouse embryo was dissected and cultured in CHIR/XAV. The outgrowth formed from the plated epiblast (middle panel) was disaggregated to establish a stable EpiSC line (right panel). Thirteen […] established from 13 plated CD1 mouse embryos. Scale bars, 50 μ[…]). See also FIG. 8. We compared the clonogenicity of EpiSCs cultured in different conditions. […] EpiSC colonies formed in CHIR/XAV were readily expanded to establish stable cell lines. […] As expected, in the CHIR/XAV condition, EpiSCs were readily derived from embryonic day (E) 5.75 embryos of CD1 and 129SvE mice (FIGS. 1E and 8B). […]"}}}
{"smiles": "Cc1c[nH]c(-c2cnc(NCCNc3ccc(C#N)cn3)nc2-c2ccc(Cl)cc2Cl)n1", "note": "[CHIR99021, 6-((2-((4-(2,4-Dichlorophenyl)-5-(4-methyl-1H-imidazol-2-yl)pyrimidin-2-yl)amino)ethyl)amino)nicotinonitrile]", "values": [{"measurement": "amount of Axin1 protein", "setting": "Axin1", "value": "not Axin1"}, {"measurement": "undifferentiated colony formation from single EpiSC", "setting": "CD1 EpiSCs", "value": "No undifferentiated colonies formed"}]}
